Measurements: patent US20070173462A1, “Treatment of diseases associated with the use of antibiotics” (Optimer Pharmaceuticals, Inc., priority 2004, published 2007)
Read-outs that look alike come from different tables or passages of the source.

What was measured:
Type in all cases: cell-based
C. difficile = assay: MIC via agar dilution, 110 genetically distinct clinical isolates of C. difficile
[1] = system: Anaerobic Gram positive cocci; assay: organism not typed; details: clinical gastrointestinal isolates, n=49
C. perfringens = assay: microbe, parasite or virus in culture
Stephylococcus sp. = assay: organism not typed; details: clinical gastrointestinal isolates, n=19
Other Clostridium sp. = assay: microbe, parasite or virus in culture; details: Clostridium; clinical isolates, n=11
C. sordellii = assay: microbe, parasite or virus in culture; details: clinical isolates, n=5
[2] = system: Streptococcus milleri group; assay: microbe, parasite or virus in culture; details: clinical gastrointestinal isolates, n=14
[3] = Clostridioides difficile, 110 clinical isolates, agar dilution

CCc1c(Cl)c(O)c(Cl)c(O)c1C(=O)O[C@H]1[C@H](O)[C@H](OC)[C@H](OC/C2=C\C=C\C[C@H](O)/C(C)=C/[C@H](CC)C(O[C@@H]3OC(C)(C)[C@@H](OC(=O)C(C)C)[C@H](O)[C@@H]3O)/C(C)=C/C(C)=C/C[C@@H](C(C)O)OC2=O)O[C@@H]1C (stereo partly shown) [Compound I]
32 µg/mL: MIC50 (Other Clostridium sp.) | MIC50 ([2]; Streptococcus milleri) | MIC90 ([2]; Streptococcus milleri)
0.03 µg/mL: MIC (C. difficile; Clostridioides difficile, isolate ORG ID Z1 3036, read-out: MIC)
0.062 µg/mL: MIC50 (C. perfringens; Clostridium perfringens) | MIC90 (C. perfringens; Clostridium perfringens) | Range (MIC) (C. perfringens; clinical isolates, n=14) | MIC50 (C. sordellii; Paraclostridium sordellii) | MIC90 (C. sordellii; Paraclostridium sordellii) | Range (MIC) (C. sordellii)
2 µg/mL: MIC90 [1]
0.125 µg/mL: MIC50 (C. difficile; [3]) | MIC90 (C. difficile; [3]) | MIC (C. difficile; isolate ORG ID 64 5940) | MIC (C. difficile; isolate ORG ID 67 6367) | MIC (C. difficile; isolate ORG ID 70 6376) | MIC (C. difficile; isolate ORG ID 71 6379) | MIC (C. difficile; isolate ORG ID 72 6380) | MIC (C. difficile; isolate ORG ID 75 6388) | MIC (C. difficile; isolate ORG ID 76 6389) | MIC (C. difficile; isolate ORG ID 80 6327) | MIC (C. difficile; isolate ORG ID 81 6328) | MIC (C. difficile; isolate ORG ID 84 6331) | MIC (C. difficile; isolate ORG ID 87 6334) | MIC (C. difficile; isolate ORG ID 88 6335) | MIC (C. difficile; isolate ORG ID 90 6338) | MIC (C. difficile; isolate ORG ID 91 6339) | MIC (C. difficile; isolate ORG ID 93 6341) | MIC (C. difficile; isolate ORG ID 95 6347) | MIC (C. difficile; isolate ORG ID 98 6350) | MIC (C. difficile; isolate ORG ID 100 6353) | MIC (C. difficile; isolate ORG ID A1 1535) | MIC (C. difficile; isolate ORG ID AF1 1808) | MIC (C. difficile; isolate ORG ID AG1 3044) | MIC (C. difficile; isolate ORG ID AH1 3430) | MIC (C. difficile; isolate ORG ID AN1 464) | MIC (C. difficile; isolate ORG ID AO1 287) | MIC (C. difficile; isolate ORG ID AS1 4099) | MIC (C. difficile; isolate ORG ID AT1 1216) | MIC (C. difficile; isolate ORG ID AW1 4501) | MIC (C. difficile; isolate ORG ID BE1 4307) | MIC (C. difficile; isolate ORG ID BI1 1675) | MIC (C. difficile; isolate ORG ID BK1 4291) | MIC (C. difficile; isolate ORG ID BL1 716) | MIC (C. difficile; isolate ORG ID BN1 1322) | MIC (C. difficile; isolate ORG ID BV1 1183) | MIC (C. difficile; isolate ORG ID BW1 3130) | MIC (C. difficile; isolate ORG ID BX1 4271) | MIC (C. difficile; isolate ORG ID CF1 5922) | MIC (C. difficile; isolate ORG ID CG1 1566) | MIC (C. difficile; isolate ORG ID CJ1 893) | MIC (C. difficile; isolate ORG ID CP1 5491) | MIC (C. difficile; isolate ORG ID G1 1077) | MIC (C. difficile; isolate ORG ID I1 1389) | MIC (C. difficile; isolate ORG ID K1 4305) | MIC (C. difficile; isolate ORG ID K14 5780) | MIC (C. difficile; isolate ORG ID L1 1423) | MIC (C. difficile; isolate ORG ID N1 471) | MIC (C. difficile; isolate ORG ID R1 397) | MIC (C. difficile; isolate ORG ID V1 1521) | MIC (C. difficile; isolate ORG ID W1 3931) | MIC (C. difficile; isolate ORG ID X1 1890)
0.25-2 ^ μg/mL: Range (MIC) (Stephylococcus sp.)
1020 µg/mL: MIC90 (Other Clostridium sp.)
0.06 to 1024 µg/mL: Range (MIC) [1]
0.08 µg/mL: MIC (C. difficile; Clostridioides difficile, 110 clinical isolates, agar dilution, read-out: Geometric Mean (MIC))
1 µg/mL: MIC90 (Stephylococcus sp.)
0.5 µg/mL: MIC50 [1] | MIC50 (Stephylococcus sp.)
16 to 64 µg/mL: Range (MIC) [2]
